{"source": "patent EP0547317A1", "about": "“Endothelin antagonists” (TAKEDA CHEMICAL INDUSTRIES, LTD., priority 1991, dated 1993)", "test_system": "porcine coronary smooth muscles", "test": "Assay of constrictor suppressing activity on porcine coronary smooth muscles (antagonism of endothelin-1 constriction)", "assay_type": "cell-based", "settings": "for pA₂: antagonistic activity on constriction by endothelin-1 given cumulatively about 15 minutes after the compound, negative logarithm of molar concentration of antagonist shifting the dose response curve by a factor of 2; for Relative potency: antagonistic activity on the constriction of porcine coronary smooth muscles, Example 1 = 100", "protocol": "• (1) Assay of Constrictor Suppressing Activity on Porcine Coronary Smooth Muscles Spiral strips 2 mm x 15 mm prepared from the coronary right ramus circumflexus from which the adventitial connective tissues and the endothelial cells were removed were set to 4 ml organ baths. The tension of each strip was detected by a force displacement transducer UL-10GR (Minebea), and recorded by a polygraph (NEC Sanei). The organ baths were maintained at 37°C, and filled with a Krebs-Henseleit solution (composition: 118 mM NaCl, 4.7 mM KCl, 2.5 mM CaCl₂, 1.2 mM KH₂PO₄, 25.0 mM NaHCO₃, 1.2 mM MgSO₄, 10.0 mM glucose) gassed with 95% O₂ and 5% CO₂. A tension of 1.25 to 1.5 g was applied to each of the strips, followed by equilibration for 1.5 hours. 60 mM KCl was repeatedly applied thereto at intervals of 30 minutes until the constriction response became constant. After additional equilibration for 1.5 hours, a sample for assay was given thereto. The constriction of the strips was normalized by the constriction response of the individual strips to 60 mM KCl and statistically processed. The suppressing activity was determined as a pA₂ value by giving endothelin-1 cumulatively about 15 minutes after the compound having a predetermined concentration was given, and comparing the constriction thereof with that of a control sample in which only endothelin-1 was given. […] Such a case has not been reported yet. […] The affinity for the receptor was assayed by the following method.", "note": "Bridge positions count the residues as written; N and C are the ends. Peptide text beside a SMILES is read from it.", "data": [{"compound": "CC[C@H](C)[C@H](NC(=O)[C@H](CC(C)C)NC(=O)CNC(=O)[C@H](CC(C)C)NC(=O)[C@H](Cc1c[nH]cn1)NC(=O)[C@@H]1CSSC[C@H](N)C(=O)N[C@@H](CO)C(=O)N[C@H]2CSSC[C@H](NC(=O)[C@H](CCC(=O)O)NC(=O)[C@H](CCCCN)NC(=O)[C@H](CC(=O)O)NC(=O)[C@H](CCSC)NC(=O)[C@H](CC(C)C)NC(=O)[C@H](CO)NC(=O)[C@H](CO)NC2=O)C(=O)N[C@@H](C(C)C)C(=O)N[C@@H](Cc2ccc(O)cc2)C(=O)N[C@@H](Cc2ccccc2)C(=O)N1)C(=O)N[C@@H](Cc1c[nH]c2ccccc12)C(=O)O", "note": "[Example 8, [Gly¹⁸, Leu¹⁹]-ET-1] (H-CSCSSLMDKECVYFCHLGLIW-OH; disulfide 1-15, 3-11)", "values": [{"measurement": "pA₂", "result": 6.7}, {"measurement": "Relative potency", "result": 10}]}, {"compound": "CC[C@H](C)[C@H](NC(=O)[C@H](Cc1ccccc1)NC(=O)[C@@H](NC(=O)[C@H](CC(C)C)NC(=O)[C@H](Cc1c[nH]cn1)NC(=O)[C@@H]1CSSC[C@H](N)C(=O)N[C@@H](CO)C(=O)N[C@H]2CSSC[C@H](NC(=O)[C@H](CCC(=O)O)NC(=O)[C@H](CCCCN)NC(=O)[C@H](CC(=O)O)NC(=O)[C@H](CCSC)NC(=O)[C@H](CC(C)C)NC(=O)[C@H](CO)NC(=O)[C@H](CO)NC2=O)C(=O)N[C@@H](C(C)C)C(=O)N[C@@H](Cc2ccc(O)cc2)C(=O)N[C@@H](Cc2ccccc2)C(=O)N1)[C@@H](C)O)C(=O)N[C@@H](Cc1c[nH]c2ccccc12)C(=O)O", "note": "[Example 3, [Thr¹⁸, Phe¹⁹]-ET-1] (H-CSCSSLMDKECVYFCHLTFIW-OH; disulfide 1-15, 3-11)", "values": [{"measurement": "pA₂", "result": 7.2}, {"measurement": "Relative potency", "result": 32}]}, {"compound": "CC[C@H](C)[C@H](NC(=O)[C@H](CC(C)C)NC(=O)[C@@H](NC(=O)[C@H](CC(C)C)NC(=O)[C@H](Cc1c[nH]cn1)NC(=O)[C@@H]1CSSC[C@H](N)C(=O)N[C@@H](CO)C(=O)N[C@H]2CSSC[C@H](NC(=O)[C@H](CCC(=O)O)NC(=O)[C@H](CCCCN)NC(=O)[C@H](CC(=O)O)NC(=O)[C@H](C)NC(=O)[C@H](CC(C)C)NC(=O)[C@H](CO)NC(=O)[C@H](CO)NC2=O)C(=O)N[C@@H](C(C)C)C(=O)N[C@@H](Cc2ccc(O)cc2)C(=O)N[C@@H](Cc2ccccc2)C(=O)N1)[C@@H](C)O)C(=O)N[C@@H](Cc1c[nH]c2ccccc12)C(=O)O", "note": "[Example 16, [Ala⁷, Thr¹⁸, Leu¹⁹]-ET-1] (H-CSCSSLADKECVYFCHLTLIW-OH; disulfide 1-15, 3-11)", "values": [{"measurement": "pA₂", "result": 7.2}, {"measurement": "Relative potency", "result": 32}]}, {"compound": "CC[C@H](C)[C@H](NC(=O)[C@H](CC(C)C)NC(=O)[C@@H](NC(=O)[C@H](CC(C)C)NC(=O)[C@H](Cc1c[nH]cn1)NC(=O)[C@@H]1CSSC[C@H](N)C(=O)N[C@@H](C)C(=O)N[C@H]2CSSC[C@H](NC(=O)[C@H](CCC(=O)O)NC(=O)[C@H](CCCCN)NC(=O)[C@H](CC(=O)O)NC(=O)[C@H](CCSC)NC(=O)[C@H](CC(C)C)NC(=O)[C@H](CO)NC(=O)[C@H](CO)NC2=O)C(=O)N[C@@H](C(C)C)C(=O)N[C@@H](Cc2ccc(O)cc2)C(=O)N[C@@H](Cc2ccccc2)C(=O)N1)[C@@H](C)O)C(=O)N[C@@H](Cc1c[nH]c2ccccc12)C(=O)O", "note": "[Example 12, [Ala², Thr¹⁸, Leu¹⁹]-ET-1] (H-CACSSLMDKECVYFCHLTLIW-OH; disulfide 1-15, 3-11)", "values": [{"measurement": "pA₂", "result": 6.7}, {"measurement": "Relative potency", "result": 10}]}]}
